Laboratory results taken from US9693556B2, “Herbicidal pyridazinone derivatives” (SYNGENTA LIMITED, priority 2011, dated 2017).

Key:
Assay type in all cases: in vivo
[1] = test system: Alopecurus myosuroides (ALOMY); test: Post-emergence herbicidal glasshouse test on Alopecurus myosuroides; conditions: post-emergence; 1000 g/h; evaluated after 13 days
Summary of the method: (§1)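 Herbicidal damage was rated 13 days after treatment on a five-point scale, where 5 denotes 80-100% and 1 denotes 0-19% damage. Spraying at 1000 g/h followed sowing by one day (pre-emergence) or eight days (post-emergence).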

[2] = test system: Echinochloa crus-galli (ECHCG); test: Post-emergence herbicidal glasshouse test on Echinochloa crus-galli; conditions: post-emergence; 1000 g/h; evaluated after 13 days
Summary of the method: as §1

Solanum nigrum (SOLNI) [3] = test: Post-emergence herbicidal glasshouse test on Solanum nigrum; conditions: post-emergence; 1000 g/h; evaluated after 13 days
Summary of the method: as §1

[4] = test system: Amaranthus retoflexus (AMARE); test: Post-emergence herbicidal glasshouse test on Amaranthus retoflexus; conditions: post-emergence; 1000 g/h; evaluated after 13 days
Summary of the method: as §1

[5] = test system: Alopecurus myosuroides (ALOMY); test: Pre-emergence herbicidal glasshouse test on Alopecurus myosuroides; conditions: pre-emergence; 1000 g/h; evaluated after 13 days
Summary of the method: as §1

[6] = test system: Ipomoea hederacea (IPOHE); test: Pre-emergence herbicidal glasshouse test on Ipomoea hederacea; conditions: pre-emergence; 1000 g/h; evaluated after 13 days
Summary of the method: as §1

[7] = test system: Amaranthus retoflexus (AMARE); test: Pre-emergence herbicidal glasshouse test on Amaranthus retoflexus; conditions: pre-emergence; 1000 g/h; evaluated after 13 days
Summary of the method: as §1

[8] = test system: Echinochloa crus-galli (ECHCG); test: Pre-emergence herbicidal glasshouse test on Echinochloa crus-galli; conditions: pre-emergence; 1000 g/h; evaluated after 13 days
Summary of the method: as §1

Solanum nigrum (SOLNI) [9] = test: Pre-emergence herbicidal glasshouse test on Solanum nigrum; conditions: pre-emergence; 1000 g/h; evaluated after 13 days
Summary of the method: as §1

Setaria faberi (SETFA) [10] = test: Post-emergence herbicidal glasshouse test on Setaria faberi; conditions: post-emergence; 1000 g/h; evaluated after 13 days
Summary of the method: as §1

Setaria faberi (SETFA) [11] = test: Pre-emergence herbicidal glasshouse test on Setaria faberi; conditions: pre-emergence; 1000 g/h; evaluated after 13 days
Summary of the method: as §1

[12] = test system: Ipomoea hederacea (IPOHE); test: Post-emergence herbicidal glasshouse test on Ipomoea hederacea; conditions: post-emergence; 1000 g/h; evaluated after 13 days
Summary of the method: as §1

Row | SMILES | POST Application ALOMY herbicidal damage (five point scale) [1] | POST Application ECHCG herbicidal damage (five point scale) [2] | POST Application SOLNI herbicidal damage (five point scale) (Solanum nigrum (SOLNI) [3]) | POST Application AMARE herbicidal damage (five point scale) [4] | PRE Application ALOMY herbicidal damage (five point scale) [5] | PRE Application IPOHE herbicidal damage (five point scale) [6] | PRE Application AMARE herbicidal damage (five point scale) [7] | PRE Application ECHCG herbicidal damage (five point scale) [8] | PRE Application SOLNI herbicidal damage (five point scale) (Solanum nigrum (SOLNI) [9]) | POST Application SETFA herbicidal damage (five point scale) (Setaria faberi (SETFA) [10]) | PRE Application SETFA herbicidal damage (five point scale) (Setaria faberi (SETFA) [11]) | POST Application IPOHE herbicidal damage (five point scale) [12]
1 | C#Cn1ncc(-c2ccc(Cl)cc2S(C)(=O)=O)c(O)c1=O [Compound 2.011] | 5 (5=80-100% damage) | 5 (5=80-100% damage) | 5 (5=80-100% damage) | 5 (5=80-100% damage) | 5 (5=80-100% damage) | 5 (5=80-100% damage) | 5 (5=80-100% damage) | 5 (5=80-100% damage) | 5 (5=80-100% damage) | 5 (5=80-100% damage) | 5 (5=80-100% damage) | 5 (5=80-100% damage)
2 | CS(=O)(=O)c1ccccc1-c1cnn(CC(F)F)c(=O)c1O [Compound 2.012] | 5 (5=80-100% damage) | 5 (5=80-100% damage) | 5 (5=80-100% damage) | 5 (5=80-100% damage) | 5 (5=80-100% damage) | 5 (5=80-100% damage) | 5 (5=80-100% damage) | 5 (5=80-100% damage) | 5 (5=80-100% damage) | 5 (5=80-100% damage) | 5 (5=80-100% damage) | 5 (5=80-100% damage)
3 | CS(=O)(=O)c1cc(Cl)ccc1-c1cnn(C2CC2)c(=O)c1O [Compound 2.014] | 5 (5=80-100% damage) | 5 (5=80-100% damage) | 5 (5=80-100% damage) | 5 (5=80-100% damage) | 5 (5=80-100% damage) | 5 (5=80-100% damage) | 5 (5=80-100% damage) | 5 (5=80-100% damage) | 5 (5=80-100% damage) | 5 (5=80-100% damage) | 5 (5=80-100% damage) | 5 (5=80-100% damage)
4 | CS(=O)(=O)c1cc(C(F)(F)F)ccc1-c1cnn(C2CC2)c(=O)c1O [Compound 2.015] | 5 (5=80-100% damage) | 5 (5=80-100% damage) | 5 (5=80-100% damage) | 5 (5=80-100% damage) | 5 (5=80-100% damage) | 5 (5=80-100% damage) | 5 (5=80-100% damage) | 5 (5=80-100% damage) | 5 (5=80-100% damage) | 5 (5=80-100% damage) | 5 (5=80-100% damage) | 5 (5=80-100% damage)
5 | CCn1ncc(-c2ccc(C(F)(F)F)cc2S(C)(=O)=O)c(O)c1=O [Compound 2.016] | 5 (5=80-100% damage) | 5 (5=80-100% damage) | 5 (5=80-100% damage) | 5 (5=80-100% damage) | 5 (5=80-100% damage) | 5 (5=80-100% damage) | 5 (5=80-100% damage) | 5 (5=80-100% damage) | 5 (5=80-100% damage) | 5 (5=80-100% damage) | 5 (5=80-100% damage) | 5 (5=80-100% damage)
6 | CCn1ncc(-c2ccc(Cl)cc2S(C)(=O)=O)c(O)c1=O [Compound 2.017] | 5 (5=80-100% damage) | 5 (5=80-100% damage) | 5 (5=80-100% damage) | 5 (5=80-100% damage) | 5 (5=80-100% damage) | 5 (5=80-100% damage) | 5 (5=80-100% damage) | 5 (5=80-100% damage) | 5 (5=80-100% damage) | 5 (5=80-100% damage) | 5 (5=80-100% damage) | 5 (5=80-100% damage)
7 | Cc1c(-c2c(C3CC3)nn(C)c(=O)c2O)ccc(S(C)(=O)=O)c1C1=NOCC1 [Compound 2.019] | 5 (5=80-100% damage) | 4 (4=60-79% damage) | 5 (5=80-100% damage) | 5 (5=80-100% damage) | 4 (4=60-79% damage) | 4 (4=60-79% damage) | 5 (5=80-100% damage) | 5 (5=80-100% damage) | 5 (5=80-100% damage) | 4 (4=60-79% damage) | 2 (2=20-39% damage) | 5 (5=80-100% damage)
8 | C=Cc1nn(C)c(=O)c(O)c1-c1ccc(S(C)(=O)=O)c(C2=NOCC2)c1C [Compound 2.020] | 4 (4=60-79% damage) | 4 (4=60-79% damage) | 5 (5=80-100% damage) | 5 (5=80-100% damage) | 4 (4=60-79% damage) | 1 (1=0-19% damage) | 5 (5=80-100% damage) | 5 (5=80-100% damage) | 5 (5=80-100% damage) | 4 (4=60-79% damage) | 1 (1=0-19% damage) | 5 (5=80-100% damage)
9 | CCS(=O)(=O)c1nn(C)c(=O)c(O)c1-c1ccc(S(C)(=O)=O)c(C2=NOCC2)c1C [Compound 2.021] | 1 (1=0-19% damage) | 5 (5=80-100% damage) | 5 (5=80-100% damage) | 5 (5=80-100% damage) | 1 (1=0-19% damage) | 1 (1=0-19% damage) | 5 (5=80-100% damage) | 1 (1=0-19% damage) | 1 (1=0-19% damage) | 2 (2=20-39% damage) | 1 (1=0-19% damage) | 5 (5=80-100% damage)
10 | Cn1nc([N+](=O)[O-])c(-c2ccc(C(F)(F)F)cc2S(C)(=O)=O)c(O)c1=O [Compound 2.022] | 5 (5=80-100% damage) | 5 (5=80-100% damage) | 5 (5=80-100% damage) | 5 (5=80-100% damage) | 5 (5=80-100% damage) | 5 (5=80-100% damage) | 5 (5=80-100% damage) | 5 (5=80-100% damage) | 5 (5=80-100% damage) | 5 (5=80-100% damage) | 4 (4=60-79% damage) | 5 (5=80-100% damage)
